We go through 15 compounds from patent US20160135464A1, “PESTICIDAL COMPOSITIONS AND PROCESSES RELATED THERETO” (Dow AgroSciences LLC, priority 2014, published 2016).

SMILES strings stand for the structures.

By pest or weed control is commonly meant how far the test organism was held down. The low end stands for weak suppression, the high end for strong suppression.

The subject of assay [1] is Beet Armyworm (BAW) (Spodoptera exigua). Briefly: Bioassay on beet armyworm (BAW), 128-well diet tray assay, percent mortality. In kind it is in vivo. Conditions: for pest or weed control at 50 µg/cm2, 50 µg/cm2: Spodoptera exigua, 50 μg/cm^2. The protocol: (§1) Certain molecules disclosed in this document were tested against BAW and CEW using procedures described in the following examples. In the reporting of the results, the “BAW & CEW Rating Table” was used (See Table Section).
Bioassays on BAW (Spodoptera exigua)
Bioassays on BAW were conducted using a 128-well diet tray assay. One to five second instar BAW larvae were placed in each well (3 mL) of the diet tray that had been previously filled with 1 mL of artificial diet to which 50 μg/cm^2 of the test compound (dissolved in 50 μL of 90:10 acetone-water mixture) had been applied (to each of eight wells) and then allowed to dry. Trays were covered with a clear self-adhesive cover and held at 25° C., 14:10 light-dark for five to seven days. Percent mortality was recorded for the larvae in each well; activity in the eight wells was then averaged. The results are indicated in the table entitled “Table 5: Biological Results” (See Table Section).

In assay [2] the test system is Corn Earworm (CEW) (Helicoverpa zea). Briefly: Bioassay on corn earworm (CEW), 128-well diet tray assay, percent mortality. The assay is classed as in vivo. Conditions: for pest or weed control at 50 µg/cm2, 50 µg/cm2: Helicoverpa zea, 50 μg/cm^2. The protocol:
as §1
Bioassays on CEW (Helicoverpa zea)
Bioassays on CEW were conducted using a 128-well diet tray assay. One to five second instar CEW larvae were placed in each well (3 mL) of the diet tray that had been previously filled with 1 mL of artificial diet to which 50 μg/cm^2 of the test compound (dissolved in 50 μL of 90:10 acetone-water mixture) had been applied (to each of eight wells) and then allowed to dry. Trays were covered with a clear self-adhesive cover and held at 25° C., 14:10 light-dark for five to seven days. Percent mortality was recorded for the larvae in each well; activity in the eight wells was then averaged. The results are indicated in the table entitled “Table 5: Biological Results” (See Table Section).

Regarding `Cc1ccc(C(C)C)c(N2/C(=N/N=C/c3ccc(-c4ncn(-c5ccc(OC(F)(F)F)cc5)n4)cc3)SCC2(C)O)c1` (centres unmarked) [Compound 253C], the pest or weed control at 50 µg/cm2, 50 µg/cm2 in assay [1] and in assay [2] was 50 to 100% each time.
`Cc1cccc(N2/C(=N/N=C/c3ccc(-c4ncn(-c5ccc(OC(F)(F)F)cc5)n4)cc3)SCC2(C)O)c1C(C)C` (centres unmarked) [Compound 252C]: the pest or weed control at 50 µg/cm2, 50 µg/cm2 in assay [1] and in assay [2] was 50 to 100% throughout.
Take `CCc1cc(OC)ccc1N1/C(=N/N=C/c2ccc(-c3ncn(-c4ccc(OC(F)(F)C(F)(F)F)cc4)n3)cc2)SCC1(C)O` (centres unmarked) [Compound 264C]: the pest or weed control at 50 µg/cm2, 50 µg/cm2 in assay [1] lay within 50 to 100%.
Turning to `CC(C)c1ccccc1N1/C(=N/N=C/c2ccc(-c3ncn(-c4ccc(C(F)(F)F)cc4)n3)cc2)SCC1(C)O` (centres unmarked) [Compound 261C], the pest or weed control at 50 µg/cm2, 50 µg/cm2 in assay [1] and in assay [2] was 50 to 100% each time.
Regarding `Cc1cccc(C)c1N1CCS/C1=N\N=C\c1ccc(-c2ncn(-c3ccc(OC(F)(F)F)cc3)n2)cc1` [Compound 141C], the pest or weed control at 50 µg/cm2, 50 µg/cm2 in assay [1] and in assay [2] was 50 to 100% in each case.
With `CC(C)c1ccccc1N1/C(=N/N=C/c2ccc(-c3ncn(-c4ccc(OC(F)(F)F)cc4)n3)cc2)SC(C)C1(C)O` (centres unmarked) [Compound 257C], the pest or weed control at 50 µg/cm2, 50 µg/cm2 in assay [1] and in assay [2] was 50 to 100% each time.
Take `Cc1cccc(Cl)c1N1/C(=N/N=C/c2ccc(-c3ncn(-c4ccc(OC(F)(F)F)cc4)n3)cc2)SCC1(C)O` (centres unmarked) [Compound 244C]: the pest or weed control at 50 µg/cm2, 50 µg/cm2 in assay [1] and in assay [2] was 50 to 100% each time.
`CC(C)c1ccccc1N1C(=NN=Cc2ccc(-c3ncn(-c4ccc(OC(F)(F)F)cc4)n3)cc2)SCC1(O)C(F)(F)F` (stereo in doubt) [Compound 246C, (Z)-3-(2-isopropylphenyl)-2-((E)-(4-(1-(4-(trifluoromethoxy)phenyl)-1H-1,2,4-triazol-3-yl)benzylidene)hydrazono)-4-(trifluoromethyl)thiazolidin-4-ol]: the pest or weed control at 50 µg/cm2, 50 µg/cm2 in assay [1] and in assay [2] was 50 to 100% in each case.
As for `COc1ccc(N2C(=O)CS/C2=N\N=C\c2ccc(-c3ncn(-c4ccc(OC(F)(F)F)cc4)n3)cc2)cc1` [Compound 114C], the pest or weed control at 50 µg/cm2, 50 µg/cm2 in assay [1] and in assay [2] was 50 to 100% throughout.
As to `Cc1cccc(C)c1/N=C(/N/N=C/c1ccc(-c2ncn(-c3ccc(OC(F)(F)F)cc3)n2)cc1)SCC#C[Si](C)(C)C` [Compound 9C], in assay [1], the “% Mortality BAW 50 μg/cm^2” value was “A (50-100)”. The “% Mortality CEW 50 μg/cm^2” value in assay [2] was “A (50-100)”.
Take `COCCOC(C)C(=O)OCS/C(=N\c1c(C)cc(OC)cc1C)N/N=C/c1ccc(-c2ncn(-c3ccc(OC(F)(F)F)cc3)n2)cc1` (centres unmarked) [Compound 42C]: the pest or weed control at 50 µg/cm2, 50 µg/cm2 in assay [1] and in assay [2] was 50 to 100% throughout.
With `COc1cc(C)c(N2/C(=N/N=C/c3ccc(-c4ncn(-c5ccc(OC(F)(F)F)cc5)n4)cc3)SCC2(C)O)c(C)c1` (centres unmarked) [Compound 255C], the pest or weed control at 50 µg/cm2, 50 µg/cm2 in assay [1] and in assay [2] was 50 to 100% in each case.
On to `COc1cc(C)c(N2C(=O)CS/C2=N\N=C\c2ccc(-c3ncn(-c4ccc(OC(F)(F)F)cc4)n3)cc2)c(C)c1` [Compound 69C], for which the pest or weed control at 50 µg/cm2, 50 µg/cm2 in assay [1] and in assay [2] was 50 to 100% throughout.
With `COCCOC(C)C(=O)OCS/C(=N\c1c(C)cccc1C)N/N=C/c1ccc(-c2ncn(-c3ccc(OC(F)(F)F)cc3)n2)cc1` (centres unmarked) [Compound 41C], the pest or weed control at 50 µg/cm2, 50 µg/cm2 in assay [1] and in assay [2] was 50 to 100% each time.
For `CC(C)c1ccccc1N1CCCCC/S1=N\N=C\c1ccc(-c2ncn(-c3ccc(OC(F)(F)F)cc3)n2)cc1` (centres unmarked) [Compound 212C], the pest or weed control at 50 µg/cm2, 50 µg/cm2 in assay [1] and in assay [2] was 50 to 100% in each case.
